Results: PubChem BioAssay (NCI)
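1) Cells in 96-well plates. 2) Compound, 48 h, 5 concentrations. 3) Linear interpolation between surrounding doses. 4) Unreached endpoint = highest concentration. The concentration for 50% growth inhibition is given as GI50. The concentration for full growth arrest is given as TGI.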

Columns and labels:
Assay in all cases: growth of human tumour cells (NCI), 48 h
[1] = system: KM12 colon
[2] = system: UACC-257 melanoma
[3] = system: NCI-H522 lung
[4] = system: DU-145 prostate
[5] = system: ACHN renal
[6] = system: LOX IMVI melanoma
[7] = system: SNB-75 CNS
[8] = system: HT29 colon
[9] = system: HCT-116 colon
[10] = system: PC-3 prostate
[11] = system: U251 CNS
[12] = system: MCF7 breast
[13] = system: 786-0 renal
[14] = system: NCI-H23 lung
[15] = system: SF-295 CNS
[16] = system: SF-268 CNS
[17] = system: EKVX NSCLC
[18] = system: MDA-MB-435
[19] = system: SK-MEL-2 melanoma
[20] = system: T-47D breast
[21] = system: CAKI-1 renal
[22] = system: NCI-H460 lung
[23] = system: HL-60(TB) leukemia
[24] = system: MOLT-4 leukemia
[25] = system: SR leukemia
[26] = system: OVCAR-8 ovarian
[27] = system: IGROV1 ovarian
[28] = system: UACC-62 melanoma
[29] = system: M14 melanoma
[30] = system: HS 578T breast
[31] = system: SK-MEL-28 melanoma
[32] = system: SK-OV-3 ovarian
[33] = system: NCI/ADR-RES ovarian
[34] = system: SF-539 CNS
[35] = system: HOP-92 NSCLC
[36] = system: HCT-15 colon
[37] = system: SK-MEL-5 melanoma
[38] = system: OVCAR-3 ovarian
[39] = system: MALME-3M melanoma
[40] = system: HOP-62 NSCLC
[41] = system: A498 renal
[42] = system: SN12C renal
[43] = system: HCC-2998 colon
[44] = system: RPMI-8226 leukemia
[45] = system: UO-31 renal
[46] = system: OVCAR-5 ovarian
[47] = system: NCI-H226 lung
[48] = system: CCRF-CEM leukemia
[49] = system: COLO 205 colon
[50] = system: MDA-MB-231 breast
[51] = system: SW-620 colon
[52] = system: K-562 leukemia
[53] = system: RXF 393 renal
[54] = system: A549 NSCLC
[55] = system: OVCAR-4 ovarian
[56] = system: BT-549 breast
[57] = system: SNB-19 CNS
[58] = system: TK-10 renal

COc1cc(/C=C2\CN(C)C/C(=C\c3cc(CN4CCCCC4)c(O)c(OC)c3)C2=O)cc(CN2CCCCC2)c1O
GI50 [1]: 2.17 µM | TGI [1]: 4.97 µM | GI50 [2]: 7.99 µM | TGI [2]: 22 µM | GI50 [3]: 2.68 µM | TGI [3]: 11.9 µM | GI50 [4]: 3.88 µM | TGI [4]: 13.7 µM | GI50 [5]: 3.95 µM | TGI [5]: 13.9 µM | GI50 [6]: 2.34 µM | TGI [6]: 6.19 µM | GI50 [7]: 1.99 µM | TGI [7]: 9.13 µM | GI50 [8]: 2.43 µM | TGI [8]: 6.42 µM | GI50 [9]: 2.5 µM | TGI [9]: 8 µM | GI50 [10]: 4.36 µM | TGI [10]: 26.2 µM | GI50 [11]: 3.1 µM | TGI [11]: 13.2 µM | GI50 [12]: 2.93 µM | TGI [12]: 13.9 µM | GI50 [13]: 3.92 µM | TGI [13]: 14.5 µM | GI50 [14]: 5.11 µM | TGI [14]: 21.4 µM | GI50 [15]: 4.52 µM | TGI [15]: 17.1 µM | GI50 [16]: 3.97 µM | TGI [16]: 17.4 µM | GI50 [17]: 4.57 µM | TGI [17]: 17.6 µM | GI50 [18]: 3.6 µM | TGI [18]: 13.2 µM | GI50 [19]: 3.53 µM | TGI [19]: 13.2 µM | GI50 [20]: 5.72 µM | TGI [20]: 24 µM | GI50 [21]: 4.62 µM | TGI [21]: 17.5 µM | GI50 [22]: 2.18 µM | TGI [22]: 5.13 µM | GI50 [23]: 2.8 µM | TGI [23]: 7.47 µM | GI50 [24]: 2.95 µM | TGI [24]: 10.7 µM | GI50 [25]: 3.15 µM | TGI [25]: 9.37 µM | GI50 [26]: 3.12 µM | TGI [26]: > 100 µM | GI50 [27]: 3.36 µM | TGI [27]: 13.6 µM | GI50 [28]: 7.2 µM | TGI [28]: 20.3 µM | GI50 [29]: 3.02 µM | TGI [29]: 10.8 µM | GI50 [30]: 3.27 µM | TGI [30]: 80.6 µM | GI50 [31]: 11.6 µM | TGI [31]: 24.5 µM | GI50 [32]: 7.71 µM | TGI [32]: 37.2 µM | GI50 [33]: 6.24 µM | TGI [33]: > 100 µM | GI50 [34]: 2.75 µM | TGI [34]: 8.17 µM | GI50 [35]: 2.55 µM | TGI [35]: 9.21 µM | GI50 [36]: 3.29 µM | TGI [36]: 12.7 µM | GI50 [37]: 13 µM | TGI [37]: 26.1 µM | GI50 [38]: 3 µM | TGI [38]: 10.4 µM | GI50 [39]: 5.62 µM | TGI [39]: 19.6 µM | GI50 [40]: 4.28 µM | TGI [40]: 18.4 µM | GI50 [41]: 10.1 µM | TGI [41]: 22.7 µM | GI50 [42]: 3.24 µM | TGI [42]: 12.8 µM | GI50 [43]: 2.61 µM | TGI [43]: 12 µM | GI50 [44]: 3.04 µM | TGI [44]: 9.32 µM | GI50 [45]: 3.78 µM | TGI [45]: 17.7 µM | GI50 [46]: 2.29 µM | TGI [46]: 5.81 µM | GI50 [47]: 10.5 µM | TGI [47]: 25.9 µM | GI50 [48]: 2.77 µM | TGI [48]: 7.52 µM | GI50 [49]: 1.96 µM | TGI [49]: 3.74 µM | GI50 [50]: 3.18 µM | TGI [50]: 11.6 µM | GI50 [51]: 3.27 µM | TGI [51]: 12.6 µM | GI50 [52]: 3.12 µM | TGI [52]: 35.2 µM | GI50 [53]: 2.01 µM | TGI [53]: 6.86 µM | GI50 [54]: 3.76 µM | TGI [54]: 16.1 µM | GI50 [55]: 4.77 µM | TGI [55]: 54.1 µM | GI50 [56]: 4.61 µM | TGI [56]: 16.3 µM

Cn1cc(-c2cnc3ccc4ccc(CS(=O)(=O)NCc5ccccn5)cc4c(=O)c3c2)cn1
GI50 [1]: 10.5 µM | TGI [1]: 52 µM | GI50 [2]: 15 µM | TGI [2]: 32.2 µM | GI50 [3]: 22 µM | TGI [3]: > 95.9 µM | GI50 [4]: 33.7 µM | TGI [4]: > 100 µM | GI50 [5]: 16.4 µM | TGI [5]: > 100 µM | GI50 [6]: 13.5 µM | TGI [6]: 35.3 µM | GI50 [7]: 6.45 µM | TGI [7]: 47.8 µM | GI50 [8]: 15.1 µM | TGI [8]: > 100 µM | GI50 [9]: 16.3 µM | TGI [9]: 54.1 µM | GI50 [10]: 31.3 µM | TGI [10]: > 100 µM | GI50 [11]: 21.6 µM | TGI [11]: > 100 µM | GI50 [12]: 7.7 µM | TGI [12]: > 100 µM | GI50 [13]: 27 µM | TGI [13]: > 100 µM | GI50 [14]: 16.2 µM | TGI [14]: > 84.7 µM | GI50 [15]: 3.61 µM | TGI [15]: > 100 µM | GI50 [16]: 20.9 µM | TGI [16]: > 100 µM | GI50 [17]: 44.9 µM | TGI [17]: > 100 µM | GI50 [18]: 3.33 µM | TGI [18]: 27.5 µM | GI50 [19]: 11.8 µM | TGI [19]: 53.4 µM | GI50 [20]: 16.4 µM | TGI [20]: > 93 µM | GI50 [21]: 14.2 µM | TGI [21]: > 100 µM | GI50 [22]: 15.7 µM | TGI [22]: 49.7 µM | GI50 [23]: 9.15 µM | TGI [23]: 41.8 µM | GI50 [24]: 9.09 µM | TGI [24]: 52.5 µM | GI50 [25]: 3.17 µM | TGI [25]: > 100 µM | GI50 [26]: 18.8 µM | TGI [26]: > 100 µM | GI50 [27]: 22.1 µM | TGI [27]: > 100 µM | GI50 [28]: 12.5 µM | TGI [28]: 39.4 µM | GI50 [29]: 11.9 µM | TGI [29]: 33.6 µM | GI50 [30]: 14 µM | TGI [30]: > 100 µM | GI50 [31]: 15 µM | TGI [31]: 35.4 µM | GI50 [32]: 26.5 µM | TGI [32]: > 100 µM | GI50 [33]: 23.5 µM | TGI [33]: > 100 µM | GI50 [34]: 16.9 µM | TGI [34]: 41.2 µM | GI50 [35]: 6.19 µM | TGI [35]: > 77.3 µM | GI50 [36]: 5.67 µM | TGI [36]: 37.1 µM | GI50 [37]: 11.3 µM | TGI [37]: 24 µM | GI50 [57]: 26.6 µM | TGI [57]: > 100 µM | GI50 [38]: 14.6 µM | TGI [38]: 45.8 µM | GI50 [39]: 21.3 µM | TGI [39]: 73.1 µM | GI50 [40]: 17.6 µM | TGI [40]: > 100 µM | GI50 [58]: 21.6 µM | TGI [58]: > 83.1 µM | GI50 [41]: 18.1 µM | TGI [41]: > 55.6 µM | GI50 [42]: 19 µM | TGI [42]: > 93.3 µM | GI50 [43]: 13.4 µM | TGI [43]: 27.9 µM | GI50 [44]: 11.6 µM | TGI [44]: > 75.2 µM | GI50 [45]: 12.6 µM | TGI [45]: > 100 µM | GI50 [46]: 29.5 µM | TGI [46]: > 100 µM | GI50 [47]: 14.8 µM | TGI [47]: 36 µM | GI50 [48]: 9.08 µM | TGI [48]: > 93.8 µM | GI50 [49]: 18.6 µM | TGI [49]: > 55.8 µM | GI50 [50]: 19.6 µM | TGI [50]: > 68.4 µM | GI50 [51]: 15.6 µM | TGI [51]: > 100 µM | GI50 [52]: 4.78 µM | TGI [52]: > 100 µM | GI50 [53]: 12.9 µM | TGI [53]: 35.1 µM | GI50 [54]: 25.2 µM | TGI [54]: > 100 µM | GI50 [55]: 10.3 µM | TGI [55]: 68.1 µM | GI50 [56]: 12.4 µM | TGI [56]: 42.6 µM
